Experimental data from US12312333B2, “SK channel positive allosteric modulators” (Chapman University, priority 2021, dated 2025).

Biological target: T1, rat KCa2.2a (UniProt P0DP23+P70604)
T1 construct: expressed in transfected cells; host or cells: HEK293
Assay: Inside-out patch-clamp potentiation of KCa2.2a channels expressed in HEK293 cells
Type: cell-based
Conditions: for EC50: inside-out patch, HEK293, 0.15 μM Ca2+, current at −90 mV, read-out: EC50 (mean ± SEM, μM) on potentiating KCa2.2a channels; for fold higher potency on KCa2.2a channels compared to CyPPA: ratio of EC50 values vs CyPPA; for KCa2.2a/KCa2.3 subtype selectivity: vs KCa2.1 and KCa3.1
Method: The impact of adding one substituent group at C4 of the cyclohexane moiety of CyPPA with either electron donating (OH (2a), NH2 (2b), CH2OH (2c), and OCH3 (2d)) or electron-withdrawing groups (F (2e) and NO2 (2f)) was explored. The potency of the newly synthesized compounds compared to the template CyPPA was measured via inside-out patch clamp electrophysiology recordings with KCa2.2a channels heterologously expressed in HEK293 cells (FIG. 1A). […] The responses induced by 10 μM Ca^2+ are considered the maximal currents of the KCa2.2a channels. To evaluate the efficacy (Emax) of compounds on KCa2.2a channels, the current amplitudes at −90 mV in response to the maximal concentration of compounds were normalized to that obtained at 10 μM Ca^2+ (I/Imax (%), FIG. 1C).
The effect of newly synthesized compounds on the KCa2.x/KCa3.1 channels was investigated as previously described (Nam, Y. W.; et al, Acta Physiol (Oxf) 2020, e13552; Nam, Y. W.; et al. Scientific reports 2018, 8 (1), 10749). Briefly, the rat KCa2.2a, human KCa2.1, human KCa2.3 or human KCa3.1 channels cDNA constructs were either generated in-house or through molecular cloning services (Genscript). The channel cDNAs, along with CaM and GFP, at a ratio of 7:4:2 (ORF ratios), were transfected into HEK293 cells by the calcium-phosphate method. KCa currents were recorded 1-2 days after transfection, with an Axon200B amplifier (Molecular Devices) at room temperature. The resistance of the patch electrodes ranged from 3-5 MΩ. The pipette solution contained (in mM): 140 KCl, 10 Hepes (pH 7.4), 1 MgSO4. The bath solution containing (in mM): 140 KCl, 10 Hepes (pH 7.2), 1 EGTA, 0.1 Dibromo-BAPTA, and 1 HEDTA was mixed with Ca^2+ to obtain the desired free Ca^2+ concentrations, calculated using the software by Chris Patton of Stanford University (https://somapp.ucdmc.ucdavis.edu/pharmacology/bers/maxchelator/webmaxc/webmaxcS.htm). The Ca^2+ concentrations were verified using a Ca^2+ calibration buffer kit (Thermo Fisher Scientific). Briefly, a standard curve was generated using the Ca^2+ buffers from the kit and a fluorescence Ca^2+ indicator. Then, the Ca^2+ concentrations of the bath solution were determined through interpolation on the standard curve.
High resistance seals (>1 GΩ) were formed before inside-out patches were obtained. The seal resistance of inside-out patches was >1 GΩ, when the intracellular face was initially exposed to a zero-Ca^2+ bath solution. Currents were recorded by repetitive 1-s-voltage ramps from −100 mV to +100 mV from a holding potential of 0 mV. The currents were filtered at 2 kHz and digitized at a sampling frequency of 10 kHz. At the end of experiment, the integrity of the patch was examined by switching the bath solution back to the zero-Ca^2+ buffer. Data from patches, which maintained the seal resistance (>1 GΩ) after solution changes, were used for further analysis.
To measure the effect of CyPPA (Alomone Labs) and newly synthesized compounds, the intracellular face was exposed to bath solutions with 0.15 μM Ca^2+. One minute after switching of bath solutions, ten sweeps with a 1-s interval were recorded at a series of concentrations of compound in the presence of 0.15 μM Ca^2+. The maximal KCa2.x/KCa3.1 current in response to 10 μM Ca^2+ was then recorded.
Patch-clamp recordings were analyzed using Clampfit 10.5 (Molecular Devices LLC) and concentration-response curves were analyzed in GraphPad Prism 9.0.2 (GraphPad Software Inc.). To construct the concentration-dependent potentiation of channel activities by compound, the current amplitudes at −90 mV in response to various concentrations of the compound were normalized to that obtained at a maximal concentration of compound. The normalized currents were plotted as a function of the concentrations of the compound. EC50 values and Hill coefficients were determined by fitting the data points to a standard concentration-response curve (Y=100/(1+(X/EC50)^−Hill)). […]

Structure (SMILES): Cc1cc(Nc2ccc(F)c(Cl)c2)nc(-n2nc(C)cc2C)n1 [Compound 2o, N-(3-Chloro-4-fluorophenyl)-2-(3,5-dimethyl-1H-pyrazol-1-yl)-6-methyl-pyrimidin-4-amine]
- EC50: 0.99 ± 0.079 µM
- fold higher potency on KCa2.2a channels compared to CyPPA: ~7 fold
- KCa2.2a/KCa2.3 subtype selectivity: retained the KCa2.2a/KCa2.3 subtype selectivity

Structure (SMILES): Cc1cc(Nc2cc(Cl)ccc2F)nc(-n2nc(C)cc2C)n1 [Compound 2q, N-(5-Chloro-2-fluorophenyl)-2-(3,5-dimethyl-1H-pyrazol-1-yl)-6-methylpyrimidin-4-amine]
- EC50: 0.64 ± 0.051 µM
- fold higher potency on KCa2.2a channels compared to CyPPA: ~10 fold
- KCa2.2a/KCa2.3 subtype selectivity: retained the KCa2.2a/KCa2.3 subtype selectivity
